Columns and labels:
Assay in all cases: relative viability (nuclei count vs DMSO), 5 days (fraction); higher = more cells survive
Ponatinib + Pemetrexed = compound: Cc1ccc(C(=O)Nc2ccc(CN3CCN(C)CC3)c(C(F)(F)F)c2)cc1C#Cc1cnc2cccnn12 [Ponatinib] + Nc1nc2[nH]cc(CCc3ccc(C(=O)N[C@@H](CCC(=O)O)C(=O)O)cc3)c2c(=O)[nH]1 [Pemetrexed] (partner 0.2 µM)
Summary of the method: (§1)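 Lung cancer cell lines in 1536-well plates were dosed by pin tool the day after seeding, either with one drug alone or with a fixed anchor-drug dose plus five library-drug doses (not always all listed) in √10 steps. After 5 days, cells were fixed and their nuclei stained in one step (final 0.05% Triton X-100, 1% formaldehyde, 1 ug/ml Hoechst), then counted on 4× images. Relative viability is the nuclei count in treated wells divided by that in vehicle wells. Values are medians of duplicate plates.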

Ponatinib + Olaparib = compound: Cc1ccc(C(=O)Nc2ccc(CN3CCN(C)CC3)c(C(F)(F)F)c2)cc1C#Cc1cnc2cccnn12 [Ponatinib] + O=C(c1cc(Cc2n[nH]c(=O)c3ccccc23)ccc1F)N1CCN(C(=O)C2CC2)CC1 [Olaparib] (partner 8 µM)
Summary of the method: as §1

Pazopanib + Pictilisib = compound: Cc1ccc(Nc2nccc(N(C)c3ccc4c(C)n(C)nc4c3)n2)cc1S(N)(=O)=O [Pazopanib] + CS(=O)(=O)N1CCN(Cc2cc3nc(-c4cccc5[nH]ncc45)nc(N4CCOCC4)c3s2)CC1 [Pictilisib] (partner 1 µM)
Summary of the method: as §1

Pazopanib + Vorinostat = compound: Cc1ccc(Nc2nccc(N(C)c3ccc4c(C)n(C)nc4c3)n2)cc1S(N)(=O)=O [Pazopanib] + O=C(CCCCCCC(=O)Nc1ccccc1)NO [Vorinostat] (partner 1 µM)
Summary of the method: as §1

Row | Cell Line | relative viability (Ponatinib + Pemetrexed; first compound 0.002 µM) | relative viability (Ponatinib + Pemetrexed; first compound 0.006325 µM) | relative viability (Ponatinib + Pemetrexed; first compound 0.06325 µM) | relative viability (Ponatinib + Pemetrexed; first compound 0.2 µM) | relative viability (Ponatinib + Olaparib; first compound 0.002 µM) | relative viability (Ponatinib + Olaparib; first compound 0.006325 µM) | relative viability (Ponatinib + Olaparib; first compound 0.06325 µM) | relative viability (Ponatinib + Olaparib; first compound 0.2 µM) | relative viability (Pazopanib + Pictilisib; first compound 0.01 µM) | relative viability (Pazopanib + Pictilisib; first compound 0.03162 µM) | relative viability (Pazopanib + Pictilisib; first compound 0.1 µM) | relative viability (Pazopanib + Pictilisib; first compound 0.3162 µM) | relative viability (Pazopanib + Pictilisib; first compound 1 µM) | relative viability (Pazopanib + Vorinostat; first compound 0.01 µM) | relative viability (Pazopanib + Vorinostat; first compound 0.03162 µM) | relative viability (Pazopanib + Vorinostat; first compound 0.1 µM) | relative viability (Pazopanib + Vorinostat; first compound 0.3162 µM) | relative viability (Pazopanib + Vorinostat; first compound 1 µM)
1 | NCI-H1755 | 0.402 | 0.404 | 0.398 | 0.466 | 0.806 | 0.856 | 0.882 | 0.782 | 0.368 | 0.432 | 0.386 | 0.458 | 0.446 | 0.65 | 0.744 | 0.876 | 0.812 | 0.75
2 | NCI-H1793 | 0.792 | 0.914 | 0.774 | 0.671 | 0.882 | 0.986 | 1.01 | 0.756 | – | 0.361 | 0.355 | 0.392 | 0.36 | – | 0.753 | 0.637 | 0.811 | 1.11
3 | NCI-H1915 | 0.459 | 0.423 | 0.529 | 0.423 | 0.254 | 0.275 | 0.278 | 0.234 | 0.905 | 0.972 | 0.976 | 0.971 | 0.899 | 0.385 | 0.481 | 0.513 | 0.525 | 0.455
4 | NCI-H1944 | 0.631 | 0.662 | 0.676 | 0.719 | 0.378 | 0.455 | 0.427 | 0.441 | 0.303 | 0.346 | 0.344 | 0.39 | 0.358 | 0.487 | 0.557 | 0.583 | 0.604 | 0.648
5 | NCI-H1975 | 0.276 | 0.293 | 0.297 | 0.257 | 0.756 | 0.77 | 0.787 | 0.732 | 0.263 | 0.281 | 0.316 | 0.309 | 0.338 | 0.712 | 0.76 | 0.805 | 0.723 | 0.754
6 | NCI-H1993 | 0.691 | 0.62 | 0.573 | 0.678 | 1.01 | 1.01 | 1.16 | 1.12 | 0.8 | 0.828 | 0.709 | 0.801 | 0.789 | – | 0.851 | 0.832 | 0.741 | 0.763
7 | NCI-H2009 | 1.05 | 0.935 | 0.959 | 0.934 | 0.586 | 0.632 | 0.655 | 0.616 | 0.748 | 0.803 | 0.786 | 0.859 | 0.947 | 0.72 | 0.744 | 0.757 | 0.692 | 0.765
8 | NCI-H2023 | 0.17 | 0.222 | 0.235 | 0.186 | 0.455 | 0.465 | 0.552 | 0.451 | 0.173 | 0.202 | 0.278 | 0.25 | 0.277 | 0.551 | 0.712 | 0.745 | 0.637 | 0.827
9 | NCI-H2085 | 0.852 | 0.894 | 1.04 | 0.874 | 0.808 | 0.814 | 0.9 | 0.754 | 0.413 | 0.463 | 0.47 | 0.429 | 0.443 | 0.674 | 0.849 | 0.758 | 0.838 | 0.86
10 | NCI-H2087 | 0.673 | 0.648 | 0.657 | 0.579 | 0.514 | 0.609 | 0.635 | 0.497 | 0.784 | 0.951 | 0.85 | 0.963 | 1.01 | 0.945 | 0.642 | 0.704 | 0.733 | 0.317
11 | NCI-H2126 | 0.835 | 0.757 | 0.818 | 0.658 | 0.902 | 0.904 | 0.967 | 0.847 | 0.443 | 0.472 | 0.559 | 0.444 | 0.531 | 0.588 | 0.747 | 0.76 | 0.822 | 0.732
12 | NCI-H2170 | 0.238 | 0.263 | 0.281 | 0.331 | 0.583 | 0.599 | 0.631 | 0.639 | 0.261 | 0.299 | 0.315 | 0.354 | 0.317 | 0.624 | 0.848 | 0.877 | 0.796 | 0.829
13 | NCI-H2228 | 0.382 | 0.339 | 0.358 | 0.306 | 0.622 | 0.57 | 0.823 | 0.566 | 0.46 | 0.386 | 0.328 | 0.393 | 0.511 | 1.12 | 1.01 | 0.706 | 0.59 | 0.619
14 | NCI-H2347 | 0.41 | 0.444 | 0.474 | 0.485 | 0.546 | 0.604 | 0.625 | 0.547 | 0.513 | 0.648 | 0.417 | 0.601 | 0.548 | 0.522 | 0.593 | 0.736 | 0.587 | 0.83
15 | NCI-H2405 | 0.913 | 1.06 | 1.1 | 1.01 | 0.784 | 0.796 | 0.95 | 0.776 | 0.321 | 0.514 | 0.424 | 0.583 | 0.586 | 0.925 | 1.16 | 0.93 | 1.11 | 1.16
16 | NCI-H3122 | 0.208 | 0.194 | 0.214 | 0.194 | 0.507 | 0.634 | 0.564 | 0.592 | 0.516 | 0.638 | 0.689 | 0.688 | 0.803 | 0.794 | 0.926 | 0.89 | 1.02 | 1.05
17 | PC-3 [JPC-3] | – | 1.09 | 1.12 | 1.1 | – | 1.15 | 1.3 | 1.09 | 0.745 | 0.707 | 0.808 | 0.73 | 0.716 | – | 0.79 | 0.597 | 0.973 | 0.93
18 | PC-14 | 0.129 | 0.137 | 0.141 | 0.122 | 0.334 | 0.359 | 0.347 | 0.284 | 0.64 | 0.612 | 0.88 | 0.637 | 0.686 | 0.81 | 0.87 | 0.669 | 0.786 | 0.751
19 | RERF-LC-KJ | 0.468 | 0.492 | 0.486 | 0.453 | 0.874 | 0.879 | 0.988 | 0.793 | 0.447 | 0.562 | 0.559 | 0.495 | 0.487 | 0.63 | 0.79 | 0.622 | 0.601 | 0.596
20 | SK-LU-1 | 0.978 | 1.07 | 0.958 | 0.84 | 0.36 | 0.491 | 0.535 | 0.388 | 0.434 | 0.636 | 0.543 | 0.633 | 0.589 | 0.756 | 0.852 | 0.755 | 0.621 | 0.861
21 | SK-MES-1 | 0.89 | 0.934 | 1.16 | 0.948 | 0.765 | 0.819 | 0.857 | 0.769 | 0.39 | 0.365 | 0.391 | 0.379 | 0.335 | 1.03 | 0.989 | 1.27 | 1.09 | 1.07
22 | SW 1573 | 0.841 | 0.802 | 0.835 | 0.838 | 0.591 | 0.519 | 0.496 | 0.408 | 0.412 | 0.531 | 0.514 | 0.632 | 0.537 | 0.641 | 0.692 | 0.648 | 0.992 | 0.525

— the supplement of paper PMC10307832
